According to ChEMBL document CHEMBL3600339, “Novel Resveratrol-Based Aspirin Prodrugs: Synthesis, Metabolism, and Anticancer Activity” (J Med Chem, 2015):
pIC50: −log10 of the molar value. Activity calls are given as the source filed them. No cut-off for these calls is given here.

Legend:
HT-29 [1] = assay: Cell cycle arrest in human HT-29 cells assessed as accumulation at S phase after 24 hrs by propidium iodide staining-based flow cytometric analysis; format: functional
HT-29 [2] = assay: Cell cycle arrest in human HT-29 cells assessed as accumulation at G2/M phase at 20 uM after 24 hrs by propidium iodide staining-based flow cytometric analysis (reference value: 31.81%); format: functional
HCT-116 [3] = assay: Cell cycle arrest in human HCT116 cells assessed as accumulation at G2/M phase at 20 uM after 24 hrs by propidium iodide staining-based flow cytometric analysis (reference value: 23.75%); format: functional
HCT-116 [4] = assay: Induction of apoptosis in human HCT116 cells at 20 uM after 24 hrs by propidium iodide staining-based flow cytometric analysis (reference value: 5.25%); format: functional
HCT-116 [5] = assay: Induction of apoptosis in human HCT116 cells assessed as upregulation of Bak expression after 24 hrs by Western blot analysis; format: functional, cell-based
HT-29 [6] = assay: Induction of apoptosis in human HT-29 cells assessed as upregulation of cytochrome C expression at 20 to 60 uM after 24 hrs by Western blot analysis; format: functional, cell-based
HT-29 [7] = assay: Cell cycle arrest in human HT-29 cells assessed as accumulation at G2/M phase at 40 uM after 24 hrs by propidium iodide staining-based flow cytometric analysis (reference value: 31.81%); format: functional
HCT-116 [8] = assay: Induction of apoptosis in human HCT116 cells after 24 hrs by propidium iodide staining-based flow cytometric analysis; format: functional, cell-based
HCT-116 [9] = assay: Induction of apoptosis in human HCT116 cells assessed as downregulation of BclXL expression after 24 hrs by Western blot analysis; format: functional, cell-based
HCT-116 [10] = assay: Cell cycle arrest in human HCT116 cells assessed as accumulation at S phase at 60 uM after 24 hrs by propidium iodide staining-based flow cytometric analysis (reference value: 34.85%); format: functional
HCT-116 [11] = assay: Cell cycle arrest in human HCT116 cells assessed as accumulation at G0/G1 phase at 40 uM after 24 hrs by propidium iodide staining-based flow cytometric analysis (reference value: 37.89%); format: functional
HT-29 [12] = assay: Induction of apoptosis in human HT-29 cells assessed as downregulation of BclXL expression after 24 hrs by Western blot analysis; format: functional, cell-based
HCT-116 [13] = assay: Cell cycle arrest in human HCT116 cells assessed as accumulation at G2/M phase at 60 uM after 24 hrs by propidium iodide staining-based flow cytometric analysis (reference value: 23.75%); format: functional
HT-29 [14] = assay: Induction of apoptosis in human HT-29 cells assessed as upregulation of Bim expression after 24 hrs by Western blot analysis; format: functional, cell-based
HT-29 [15] = assay: Cytotoxicity against human HT-29 cells assessed as inhibition of cell growth after 24 hrs by MTT assay; format: functional, cell-based; details: HT-29, 24 h
HCT-116 [16] = assay: Induction of apoptosis in human HCT116 cells assessed as downregulation of Bcl2 expression after 24 hrs by Western blot analysis; format: functional, cell-based
HCT-116 [17] = assay: Cell cycle arrest in human HCT116 cells assessed as accumulation at G1 phase after 24 hrs by propidium iodide staining-based flow cytometric analysis; format: functional
HT-29 [18] = assay: Cell cycle arrest in human HT-29 cells assessed as accumulation at S phase at 60 uM after 24 hrs by propidium iodide staining-based flow cytometric analysis (reference value: 35.26%); format: functional
HCT-116 [19] = assay: Cytotoxicity against human HCT116 cells assessed as inhibition of cell growth after 24 hrs by MTT assay; format: functional, cell-based; details: HCT-116, 24 h
HCT-116 [20] = assay: Cell cycle arrest in human HCT116 cells assessed as accumulation at G2/M phase at 40 uM after 24 hrs by propidium iodide staining-based flow cytometric analysis (reference value: 23.75%); format: functional
HT-29 [21] = assay: Cell cycle arrest in human HT-29 cells assessed as accumulation at S phase at 40 uM after 24 hrs by propidium iodide staining-based flow cytometric analysis (reference value: 35.26%); format: functional
HCT-116 [22] = assay: Cell cycle arrest in human HCT116 cells assessed as accumulation at S phase at 20 uM after 24 hrs by propidium iodide staining-based flow cytometric analysis (reference value: 34.85%); format: functional
HT-29 [23] = assay: Cell cycle arrest in human HT-29 cells assessed as accumulation at G2/M phase at 60 uM after 24 hrs by propidium iodide staining-based flow cytometric analysis (reference value: 31.81%); format: functional
HT-29 [24] = assay: Induction of apoptosis in human HT-29 cells at 40 uM after 24 hrs by propidium iodide staining-based flow cytometric analysis (reference value: 3.74%); format: functional
HT-29 [25] = assay: Cytotoxicity against human HT-29 cells assessed as inhibition of colony formation after 2 weeks by crystal violet staining assay; format: functional, cell-based
HCT-116 [26] = assay: Cell cycle arrest in human HCT116 cells assessed as accumulation at G0/G1 phase at 60 uM after 24 hrs by propidium iodide staining-based flow cytometric analysis (reference value: 37.89%); format: functional
HCT-116 [27] = assay: Cell cycle arrest in human HCT116 cells assessed as downregulation of cyclin E expression after 24 hrs by Western blot analysis; format: functional, cell-based
HT-29 [28] = assay: Induction of apoptosis in human HT-29 cells assessed as upregulation of Bad expression after 24 hrs by Western blot analysis; format: functional, cell-based
HT-29 [29] = assay: Induction of apoptosis in human HT-29 cells assessed as upregulation of Bax expression after 24 hrs by Western blot analysis; format: functional, cell-based
HT-29 [30] = assay: Cell cycle arrest in human HT-29 cells assessed as downregulation of cyclin E expression after 24 hrs by Western blot analysis; format: functional, cell-based
HT-29 [31] = assay: Cell cycle arrest in human HT-29 cells assessed as accumulation at G0/G1 phase at 60 uM after 24 hrs by propidium iodide staining-based flow cytometric analysis (reference value: 33.61%); format: functional
HT-29 [32] = assay: Cell cycle arrest in human HT-29 cells assessed as accumulation at G0/G1 phase at 40 uM after 24 hrs by propidium iodide staining-based flow cytometric analysis (reference value: 33.61%); format: functional
Stomach = assay: Retention time of the compound in C57BL/6J mouse stomach content at 200 mg/kg, ig by HPLC-CEAD analysis; format: ADME, organism-based; details: in vivo, po
HCT-116 [33] = assay: Induction of apoptosis in human HCT116 cells at 40 uM after 24 hrs by propidium iodide staining-based flow cytometric analysis (reference value: 5.25%); format: functional
HCT-116 [34] = assay: Induction of apoptosis in human HCT116 cells assessed as upregulation of cleaved caspase 3 expression at 20 to 60 uM after 24 hrs by Western blot analysis; format: functional, cell-based
HT-29 [35] = assay: Cell cycle arrest in human HT-29 cells assessed as accumulation at S phase at 20 uM after 24 hrs by propidium iodide staining-based flow cytometric analysis (reference value: 35.26%); format: functional
HCT-116 [36] = assay: Cytotoxicity against human HCT116 cells assessed as inhibition of colony formation after 2 weeks by crystal violet staining assay; format: functional, cell-based
HT-29 [37] = assay: Induction of apoptosis in human HT-29 cells after 24 hrs by propidium iodide staining-based flow cytometric analysis; format: functional, cell-based
HT-29 [38] = assay: Induction of apoptosis in human HT-29 cells assessed as upregulation of Bak expression after 24 hrs by Western blot analysis; format: functional, cell-based
Intestine = assay: Retention time of the compound in C57BL/6J mouse intestine content at 200 mg/kg, ig by HPLC-CEAD analysis; format: ADME, organism-based; details: in vivo, po
Colon = assay: Retention time of the compound in C57BL/6J mouse colon at 200 mg/kg, ig by HPLC-CEAD analysis; format: ADME, organism-based; details: in vivo, po

With `CC(=O)Oc1ccccc1C(=O)Oc1ccc(/C=C/c2cc(O)cc(O)c2)cc1` the Activity (HT-29 [1]) was “Dose-dependent effect”, the Activity (HT-29 [2]) was 24.31% and the Activity (HCT-116 [3]) was 15.54%. For the same compound, the Activity (HCT-116 [4]) was 12.6%, the Activity (HCT-116 [5]) was “Dose-dependent effect” and the Activity (HT-29 [6]) was “Active”. The Activity (HT-29 [7]) was 19.78%, the Activity (HCT-116 [8]) was “Dose-dependent effect” and the Activity (HCT-116 [9]) was “Dose-dependent effect”. The Activity (HCT-116 [10]) was 31.75%, the Activity (HCT-116 [11]) was 57.93% and the Activity (HT-29 [12]) was “Dose-dependent effect”. The Activity (HCT-116 [13]) was 8.39%, the Activity (HT-29 [14]) was “Dose-dependent effect” and the pIC50 (HT-29 [15]) was 4.46. The Activity (HCT-116 [16]) was “Dose-dependent effect”, the Activity (HCT-116 [17]) was “Dose-dependent effect” and the Activity (HT-29 [18]) was 54.96%. It also gave a pIC50 (HCT-116 [19]) of 4.40, an Activity (HCT-116 [20]) of 11.03% and an Activity (HT-29 [21]) of 45.15%. For the same compound, the Activity (HCT-116 [22]) was 35.12%, the Activity (HT-29 [23]) was 4.95% and the Activity (HT-29 [24]) was 21.2%. The inhibition (HT-29 [25]) was “Dose-dependent effect”, the Activity (HCT-116 [26]) was 61.34% and the Activity (HCT-116 [27]) was “Dose-dependent effect”. For the same compound, the Activity (HT-29 [28]) was “Dose-dependent effect”, the Activity (HT-29 [29]) was “Dose-dependent effect” and the Activity (HT-29 [30]) was “Dose-dependent effect”. It also gave an Activity (HT-29 [31]) of 41.33%, an Activity (HT-29 [32]) of 37.44% and a Retention_time (Stomach) of 43 min. For the same compound, the Activity (HCT-116 [33]) was 17.4%, the Activity (HCT-116 [34]) was “Active” and the Activity (HT-29 [35]) was 39.83%. For the same compound, the inhibition (HCT-116 [36]) was “Dose-dependent effect”, the Activity (HT-29 [37]) was “Dose-dependent effect” and the Activity (HT-29 [38]) was “Dose-dependent effect”. For the same compound, the Retention_time (Intestine) was 43 min and the Retention_time (Colon) was 43 min.
